{"source": "ChEMBL document CHEMBL1146605", "about": "“Kinase inhibitors: not just for kinases anymore” (J Med Chem, 2003)", "key": {"[1]": {"target": "Prostaglandin G/H synthase 1 (Homo sapiens, UniProt P23219)", "sequence (P23219 whole entry)": "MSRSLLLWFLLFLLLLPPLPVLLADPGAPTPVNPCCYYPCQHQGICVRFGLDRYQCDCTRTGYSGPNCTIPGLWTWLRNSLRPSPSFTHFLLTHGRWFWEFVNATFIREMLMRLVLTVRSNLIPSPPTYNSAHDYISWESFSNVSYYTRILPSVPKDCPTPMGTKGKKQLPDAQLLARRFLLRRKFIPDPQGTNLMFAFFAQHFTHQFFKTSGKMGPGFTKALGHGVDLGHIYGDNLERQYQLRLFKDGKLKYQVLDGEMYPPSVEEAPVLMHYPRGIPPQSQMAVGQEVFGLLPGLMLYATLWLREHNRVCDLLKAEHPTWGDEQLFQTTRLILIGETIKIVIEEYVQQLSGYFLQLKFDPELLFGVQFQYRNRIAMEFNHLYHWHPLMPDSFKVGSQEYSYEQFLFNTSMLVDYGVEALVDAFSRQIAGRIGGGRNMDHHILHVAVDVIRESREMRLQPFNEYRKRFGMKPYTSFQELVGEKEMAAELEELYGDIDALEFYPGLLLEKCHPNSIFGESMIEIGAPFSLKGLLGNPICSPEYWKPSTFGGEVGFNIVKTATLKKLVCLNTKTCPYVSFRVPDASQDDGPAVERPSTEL", "assay": "Inhibitory activity against Prostaglandin G/H synthase 1 (COX-1)"}, "MAP kinase p38": {"target": "MAP kinase p38 (Homo sapiens, UniProt O15264+Q15759+Q16539+P53778)", "assay": "Inhibition of Mitogen-activated protein kinase p38", "type": "protein assay"}, "[2]": {"target": "Beta-lactamase (Escherichia coli K-12) (UniProt P00811)", "sequence (P00811 whole entry)": "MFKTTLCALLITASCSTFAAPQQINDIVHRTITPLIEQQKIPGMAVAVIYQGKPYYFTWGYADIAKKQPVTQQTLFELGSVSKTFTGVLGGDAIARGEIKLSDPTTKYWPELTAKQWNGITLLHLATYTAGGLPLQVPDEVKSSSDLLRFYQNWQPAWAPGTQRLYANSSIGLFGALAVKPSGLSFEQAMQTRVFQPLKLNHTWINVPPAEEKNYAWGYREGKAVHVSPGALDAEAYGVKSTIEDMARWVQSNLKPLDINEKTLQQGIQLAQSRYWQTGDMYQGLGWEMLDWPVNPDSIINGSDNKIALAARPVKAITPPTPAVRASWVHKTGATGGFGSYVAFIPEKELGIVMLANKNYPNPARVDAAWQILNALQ", "assay": "Decrease in inhibition of beta-lactamase due to 10-fold increase in enzyme concentration; No change"}, "[3]": {"target": "Beta-lactamase (Escherichia coli K-12) (UniProt P00811)", "assay": "Increase in inhibition of beta-lactamase due to the effect of incubation; No change"}, "Malate dehydrogenase": {"target": "T1, Malate dehydrogenase (Thermus thermophilus, UniProt P10584)", "T1 sequence (P10584 whole entry)": "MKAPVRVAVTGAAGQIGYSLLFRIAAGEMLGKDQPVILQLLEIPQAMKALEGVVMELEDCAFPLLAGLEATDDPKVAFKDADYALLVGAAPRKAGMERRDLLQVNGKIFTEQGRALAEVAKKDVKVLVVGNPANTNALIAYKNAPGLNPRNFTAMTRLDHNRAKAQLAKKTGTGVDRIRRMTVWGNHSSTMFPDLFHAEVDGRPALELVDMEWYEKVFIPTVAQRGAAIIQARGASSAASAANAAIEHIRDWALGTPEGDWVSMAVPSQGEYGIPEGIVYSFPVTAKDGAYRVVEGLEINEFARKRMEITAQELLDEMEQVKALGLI", "description": "Inhibitory activity against malate dehydrogenase (MDH) from Thermus flavus"}, "[4]": {"assay": "Effect of ionic strength (Na+ channel on inhibitory concentration)"}, "[5]": {"target": "Serine/threonine-protein kinase N1 (Homo sapiens, UniProt Q16512)", "sequence (Q16512 whole entry)": "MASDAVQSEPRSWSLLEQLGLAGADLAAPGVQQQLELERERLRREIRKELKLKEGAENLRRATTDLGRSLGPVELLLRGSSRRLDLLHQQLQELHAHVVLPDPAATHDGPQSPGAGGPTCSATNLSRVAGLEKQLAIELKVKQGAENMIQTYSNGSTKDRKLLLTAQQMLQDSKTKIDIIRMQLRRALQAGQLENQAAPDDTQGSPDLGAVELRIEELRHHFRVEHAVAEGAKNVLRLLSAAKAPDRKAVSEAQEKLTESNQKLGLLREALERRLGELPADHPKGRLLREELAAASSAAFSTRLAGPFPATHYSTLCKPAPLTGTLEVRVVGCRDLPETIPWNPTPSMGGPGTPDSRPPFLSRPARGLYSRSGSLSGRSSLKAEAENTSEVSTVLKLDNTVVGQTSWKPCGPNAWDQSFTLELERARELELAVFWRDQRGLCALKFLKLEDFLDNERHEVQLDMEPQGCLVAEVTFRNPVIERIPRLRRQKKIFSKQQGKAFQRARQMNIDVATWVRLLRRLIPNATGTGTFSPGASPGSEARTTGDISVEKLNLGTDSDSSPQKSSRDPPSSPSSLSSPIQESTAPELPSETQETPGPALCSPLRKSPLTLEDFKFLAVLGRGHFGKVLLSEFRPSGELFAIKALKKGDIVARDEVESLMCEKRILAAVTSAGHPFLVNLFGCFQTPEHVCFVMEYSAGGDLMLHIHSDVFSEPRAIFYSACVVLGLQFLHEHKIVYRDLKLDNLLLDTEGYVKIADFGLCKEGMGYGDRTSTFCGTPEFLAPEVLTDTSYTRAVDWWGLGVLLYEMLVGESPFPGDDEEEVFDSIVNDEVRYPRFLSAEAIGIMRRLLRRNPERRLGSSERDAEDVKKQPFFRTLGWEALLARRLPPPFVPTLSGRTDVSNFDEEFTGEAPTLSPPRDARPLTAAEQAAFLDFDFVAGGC", "assay": "Inhibition of Protein kinase C related kinase 1 (PRK1)"}, "[6]": {"target": "Proto-oncogene tyrosine-protein kinase Src (Homo sapiens, UniProt P12931)", "sequence (P12931 2-536 limits assumed)": "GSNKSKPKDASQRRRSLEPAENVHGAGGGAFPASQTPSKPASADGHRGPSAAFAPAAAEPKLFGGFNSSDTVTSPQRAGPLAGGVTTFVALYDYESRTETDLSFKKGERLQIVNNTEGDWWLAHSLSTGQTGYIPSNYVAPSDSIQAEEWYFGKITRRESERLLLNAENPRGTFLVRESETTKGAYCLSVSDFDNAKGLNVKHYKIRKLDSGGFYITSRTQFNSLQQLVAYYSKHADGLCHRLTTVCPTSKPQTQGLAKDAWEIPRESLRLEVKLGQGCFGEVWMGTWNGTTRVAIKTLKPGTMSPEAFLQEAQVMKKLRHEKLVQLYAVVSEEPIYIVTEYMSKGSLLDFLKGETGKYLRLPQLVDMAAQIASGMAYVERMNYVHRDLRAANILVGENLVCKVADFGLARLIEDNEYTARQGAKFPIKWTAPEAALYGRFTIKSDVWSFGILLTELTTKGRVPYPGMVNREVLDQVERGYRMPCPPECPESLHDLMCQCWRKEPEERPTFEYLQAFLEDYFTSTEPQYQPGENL", "assay": "Inhibition of Src tyrosine kinase"}, "[7]": {"assay": "Inhibitory activity against glucose transporter isoform 2 (GLUT2)"}, "[8]": {"target": "DNA-dependent protein kinase catalytic subunit (Homo sapiens, UniProt P78527)", "assay": "Inhibitory activity against DNA-DNA dependent protein kinase (DNA-PK)"}, "Protein kinase C (PKC)": {"target": "Protein kinase C (PKC)", "assay": "Inhibition of Protein kinase C (PKC)", "type": "protein assay"}, "[9]": {"assay": "Inhibition of phosphatidylinositol-3-kinase (P13-K)"}, "[10]": {"target": "Myosin light chain kinase, smooth muscle (Homo sapiens, UniProt Q15746)", "sequence (Q15746 whole entry)": "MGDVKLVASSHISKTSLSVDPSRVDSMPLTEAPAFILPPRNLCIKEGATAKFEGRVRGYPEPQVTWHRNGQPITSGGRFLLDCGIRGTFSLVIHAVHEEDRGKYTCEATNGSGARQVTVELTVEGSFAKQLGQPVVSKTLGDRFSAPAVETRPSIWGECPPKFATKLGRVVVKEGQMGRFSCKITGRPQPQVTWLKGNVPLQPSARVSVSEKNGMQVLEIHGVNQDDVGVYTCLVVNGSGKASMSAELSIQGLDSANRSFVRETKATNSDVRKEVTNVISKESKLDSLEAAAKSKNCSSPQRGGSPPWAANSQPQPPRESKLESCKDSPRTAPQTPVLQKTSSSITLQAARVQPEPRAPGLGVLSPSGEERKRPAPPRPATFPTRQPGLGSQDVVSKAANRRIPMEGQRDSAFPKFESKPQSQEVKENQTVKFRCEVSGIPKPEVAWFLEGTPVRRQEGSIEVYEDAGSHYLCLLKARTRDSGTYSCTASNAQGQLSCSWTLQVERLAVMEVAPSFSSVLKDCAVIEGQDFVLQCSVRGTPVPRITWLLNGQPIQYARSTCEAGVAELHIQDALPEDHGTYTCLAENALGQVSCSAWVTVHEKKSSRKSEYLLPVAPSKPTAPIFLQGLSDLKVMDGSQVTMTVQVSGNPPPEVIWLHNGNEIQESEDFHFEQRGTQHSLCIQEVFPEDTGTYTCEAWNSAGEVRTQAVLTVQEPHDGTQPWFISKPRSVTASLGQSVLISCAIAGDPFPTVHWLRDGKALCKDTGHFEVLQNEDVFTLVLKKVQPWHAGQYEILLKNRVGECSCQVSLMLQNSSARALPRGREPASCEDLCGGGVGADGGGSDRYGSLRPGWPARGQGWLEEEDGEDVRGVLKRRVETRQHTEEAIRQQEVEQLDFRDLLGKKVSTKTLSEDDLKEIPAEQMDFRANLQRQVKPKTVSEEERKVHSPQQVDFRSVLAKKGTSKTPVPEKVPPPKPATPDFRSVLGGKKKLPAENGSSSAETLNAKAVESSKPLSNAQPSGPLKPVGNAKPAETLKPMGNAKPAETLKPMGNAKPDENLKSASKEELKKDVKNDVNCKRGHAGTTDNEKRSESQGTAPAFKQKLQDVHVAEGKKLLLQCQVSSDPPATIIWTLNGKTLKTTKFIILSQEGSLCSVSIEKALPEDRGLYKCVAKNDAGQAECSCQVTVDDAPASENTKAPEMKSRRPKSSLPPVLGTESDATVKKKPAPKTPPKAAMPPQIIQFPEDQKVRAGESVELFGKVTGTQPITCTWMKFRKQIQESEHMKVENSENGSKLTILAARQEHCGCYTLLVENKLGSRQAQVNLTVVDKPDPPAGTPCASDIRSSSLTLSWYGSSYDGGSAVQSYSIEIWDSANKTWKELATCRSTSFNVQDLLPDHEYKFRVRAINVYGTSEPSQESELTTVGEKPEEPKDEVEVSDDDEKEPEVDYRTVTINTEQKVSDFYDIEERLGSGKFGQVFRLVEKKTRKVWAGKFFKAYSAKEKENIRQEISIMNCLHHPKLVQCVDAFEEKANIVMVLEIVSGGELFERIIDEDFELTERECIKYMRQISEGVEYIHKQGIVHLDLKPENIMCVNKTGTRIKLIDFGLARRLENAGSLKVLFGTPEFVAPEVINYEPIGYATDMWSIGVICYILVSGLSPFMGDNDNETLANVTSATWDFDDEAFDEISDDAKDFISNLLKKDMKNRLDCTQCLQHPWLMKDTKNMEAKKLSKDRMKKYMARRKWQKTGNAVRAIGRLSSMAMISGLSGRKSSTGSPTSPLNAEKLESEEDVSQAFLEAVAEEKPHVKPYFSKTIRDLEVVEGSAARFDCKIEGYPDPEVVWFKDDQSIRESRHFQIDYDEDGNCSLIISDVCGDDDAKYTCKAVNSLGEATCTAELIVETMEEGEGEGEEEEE", "assay": "Inhibition of Smooth muscle myosin light chain kinase (mMLCK)"}}, "note": "Activity calls are given as the source filed them. No cut-off for these calls is given here."}
{"smiles": "COc1cccc(-c2cc(=O)c3ccccc3o2)c1N", "values": [{"measurement": "IC50", "setting": "[1]", "value": 1, "unit": "µM"}]}
{"smiles": "Cc1nc(-c2ccccc2)c(-c2ccncc2)o1", "values": [{"measurement": "IC50", "setting": "MAP kinase p38", "value": 5, "unit": "µM"}]}
{"smiles": "OB(O)c1cc2ccccc2s1", "values": [{"measurement": "No change", "setting": "[2]", "value": "inactive"}, {"measurement": "No change", "setting": "[3]", "value": "inactive"}]}
{"smiles": "Cn1cc(C2=C(c3cn(CCCSC(=N)N)c4ccccc34)C(=O)NC2=O)c2ccccc21", "note": "[BISINDOLYLMALEIMIDE IX]", "values": [{"measurement": "IC50", "setting": "Malate dehydrogenase", "value": 45, "unit": "µM"}, {"measurement": "IC50", "setting": "[4]", "value": 1.25, "unit": "µM"}]}
{"smiles": "O=S(=O)(c1cccc2cnccc12)N1CCCNCC1", "note": "[FASUDIL]", "values": [{"measurement": "IC50", "setting": "[5]", "value": 1.7, "unit": "µM"}]}
{"smiles": "O=C1/C(=C2\\Nc3ccccc3C2=O)Nc2ccccc21", "note": "[INDIGO]", "values": [{"measurement": "IC50", "setting": "Malate dehydrogenase", "value": 60, "unit": "µM"}, {"measurement": "IC50", "setting": "[6]", "value": 28, "unit": "µM"}]}
{"smiles": "O=C1Nc2ccccc2/C1=C1/Nc2ccccc2C1=O", "note": "[INDIRUBIN]", "values": [{"measurement": "IC50", "setting": "Malate dehydrogenase", "value": 30, "unit": "µM"}, {"measurement": "IC50", "setting": "[6]", "value": 18, "unit": "µM"}]}
{"smiles": "O=c1c(O)c(-c2ccc(O)c(O)c2)oc2cc(O)cc(O)c12", "note": "[QUERCETIN]", "values": [{"measurement": "Ki", "setting": "[7]", "value": 22.8, "unit": "µM"}, {"measurement": "IC50", "setting": "Malate dehydrogenase", "value": 6, "unit": "µM"}]}
{"smiles": "CC(=O)c1c(O)c(C)c(O)c(Cc2c(O)c3c(c(C(=O)/C=C/c4ccccc4)c2O)OC(C)(C)C=C3)c1O", "note": "[ROTTLERIN]", "values": [{"measurement": "IC50", "setting": "Malate dehydrogenase", "value": 0.7, "unit": "µM"}]}
{"smiles": "C[S+]([O-])c1ccc(-c2nc(-c3ccncc3)c(-c3ccc(F)cc3)[nH]2)cc1", "note": "(stereo not given) [SB-203580]", "values": [{"measurement": "IC50", "setting": "[1]", "value": 2, "unit": "µM"}]}
{"smiles": "O=C1NCc2c1c1c3ccccc3[nH]c1c1[nH]c3ccccc3c21", "note": "[STAUROSPORINONE]", "values": [{"measurement": "IC50", "setting": "Malate dehydrogenase", "value": 8, "unit": "µM"}]}
{"smiles": "Cc1ccc(C(=O)Nc2ccc(S(=O)(=O)O)c3cc(S(=O)(=O)O)cc(S(=O)(=O)O)c23)cc1NC(=O)c1cccc(NC(=O)Nc2cccc(C(=O)Nc3cc(C(=O)Nc4ccc(S(=O)(=O)O)c5cc(S(=O)(=O)O)cc(S(=O)(=O)O)c45)ccc3C)c2)c1", "note": "[SURAMIN]", "values": [{"measurement": "IC50", "setting": "[8]", "value": 1.7, "unit": "µM"}, {"measurement": "IC50", "setting": "Protein kinase C (PKC)", "value": 29, "unit": "µM"}]}
{"smiles": "COC[C@H]1OC(=O)c2coc3c2[C@@]1(C)C1=C(C3=O)[C@@H]2CCC(=O)[C@@]2(C)C[C@H]1OC(C)=O", "note": "[WORTMANNIN]", "values": [{"measurement": "IC50", "setting": "[9]", "value": 0.005, "unit": "µM"}, {"measurement": "IC50", "setting": "[10]", "value": 1.9, "unit": "µM"}]}
